# Reference: patent US9358220B2, “Method of treating acne” (THESAN PHARMACEUTICALS, INC., priority 2008, dated 2016)
# Read-outs that look alike come from different tables or passages of the source.
# Key:
# CYPlAl [1] = assay: CYP1A1 activity test (P450-GLO assay) in Hep G2 cells
# Description: The tests are carried out using the P450-GLO assay kit from Promega. At D0, the cells are seeded at a density of approximately 60% confluence, and then treated at Dl with the test substance diluted to various concentrations in the appropriate culture medium. At D2, the CYPlAl activity is measured as recommended by the supplier, using the nonlytic protocol on a cell monolayer.
# AhR [2] = molecular target: T1, AhR (Homo sapiens, UniProt P35869); assay: AhR activation test, luciferase reporter plox-XRE TATA-Luc in HEP G2 cells; type: cell-based; design: endogenous in cells; host or cells: Hep G2 cells transduced with the reporter lentivector plox-XRE TATA-Luc; details: for AhR percentage activation compared to 0.01 μM TCDD: HEP G2 cells, most active concentration in the range tested
# T1 sequence (P35869 11-848): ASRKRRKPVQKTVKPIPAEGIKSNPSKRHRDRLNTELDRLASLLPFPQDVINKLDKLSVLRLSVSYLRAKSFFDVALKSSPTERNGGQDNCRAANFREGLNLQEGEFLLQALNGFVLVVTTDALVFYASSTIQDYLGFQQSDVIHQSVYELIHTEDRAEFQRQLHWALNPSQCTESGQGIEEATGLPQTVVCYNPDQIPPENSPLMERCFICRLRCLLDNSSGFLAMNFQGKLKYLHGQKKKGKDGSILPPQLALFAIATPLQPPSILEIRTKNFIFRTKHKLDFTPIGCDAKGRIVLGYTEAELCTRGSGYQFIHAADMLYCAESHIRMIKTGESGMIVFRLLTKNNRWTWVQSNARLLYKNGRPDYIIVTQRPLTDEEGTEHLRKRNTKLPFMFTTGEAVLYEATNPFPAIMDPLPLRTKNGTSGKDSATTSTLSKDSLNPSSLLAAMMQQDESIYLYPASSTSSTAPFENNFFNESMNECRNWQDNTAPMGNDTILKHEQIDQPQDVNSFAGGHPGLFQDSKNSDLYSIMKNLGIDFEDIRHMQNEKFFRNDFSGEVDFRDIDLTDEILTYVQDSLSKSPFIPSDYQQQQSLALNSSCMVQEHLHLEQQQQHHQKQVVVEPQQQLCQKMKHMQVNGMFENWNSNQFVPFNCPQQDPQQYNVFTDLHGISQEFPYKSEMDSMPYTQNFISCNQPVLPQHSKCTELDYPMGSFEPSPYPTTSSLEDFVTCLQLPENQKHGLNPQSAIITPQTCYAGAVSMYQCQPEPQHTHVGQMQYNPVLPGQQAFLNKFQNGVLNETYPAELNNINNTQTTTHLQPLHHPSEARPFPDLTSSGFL
# Description: (§1) The Hep G2 cells are cultured in DMEM (Gibco)+10% fetal bovine serum+penicillin+streptomycin, the NHKs in keratinocyte SFM medium (Gibco)+penicillin+streptomycin. At DO, the Hep G2 cells are seeded into 12-well plates in a proportion of approximately 30 000 cells/cm^2. The NHKs are seeded into 6-well plates in a proportion of approximately 15 000 cells/cm^2. After 24 h, the medium is replaced with fresh medium and the cells are transduced with the lentivector plox-XRE TATA-Luc. After 48 h, the cells are subcultured and maintained in culture, and tested for their reactivity to TCDD.
# The tests are carried out using the luciferase reporter assay system kit from Promega. At DO, the cells are seeded at a density of approximately 60% confluence, and then treated, at Dl, with the test substance diluted to various concentrations in the appropriate culture medium. At D2, the cells are lysed in CLB buffer, and the lysate is clarified by centrifugation for 5 min at 10 000 g. The luciferase activity is measured in 20 microliters of lysate as recommended by the supplier, using the luminoskan luminometer (Thermo).
# sebaceous glands [3] = assay: Sebaceous glands in the ear skin of C57BL/6 mice after topical application; type: in vivo
# Excerpt: The effect on the sebaceous glands can be reproduced in animals by topical application of TCDD. A 95% reduction in the number of sebaceous glands can be observed in C57BL/6 mice after 45 days of application of 2 mcg/ml TCDD (FIG. 2).
# To reproduce the useful effect of TCDD, in a therapeutic reduction approach the reduction in the surface area of the sebaceous glands in the ears of C57BL/6 mice treated once a day for 45 d with various ligands according to the invention can be studied. The surface area of the sebaceous glands is measured on three serial sections per animal. A reduction of greater than 40% is sought, and obtained here with a concentration, a treatment time and an application frequency considered to be minimal. Isotretinoin is shown by way of example of a product used for the topical and systemic treatment of acne.
# The topical application of an AhR ligand such as 6-formylindolo[3,2-b]carbazole (FICZ), at a concentration of 100 mcg/ml, makes it possible to obtain a significant decrease in the sebaceous glands, of the order of 40%. Other ligands according to the invention (see FIGS. 14, 15 and 17) also lead to a decrease in the surface area of the sebaceous glands.
# human keratinocytes = assay: Wound healing in vitro on a culture of human keratinocytes (migration index); type: cell-based
# Description: The wound is induced by means of an incision with a yellow micropipette tip (10-200 μl). Migration index value obtained with the ligand/that of the control without ligand. […] This indicates an activity of the AhR activation pathway on the migration of keratinocytes which is found in vivo in humans (FIGS. 5, 6, 10).
# sebaceous glands [4] = assay: Sebaceous glands in biopsies of human skin exposed to TCDD (histology); type: in vivo; details: human skin containing 930 to 2900 ppt of TCDD; 62 biopsies, 620 sections
# Description: The sebaceous glands, which are present in large numbers in normal human skin, disappear during exposure to toxic doses of TCDD. […] Thus, on the face of an adult, the number is between 400 and 900/cm^2.
# For each site, 3 to 10 skin biopsies were analyzed after fixing with formol and staining with hematin-eosin. At least 10 sections per block were analyzed.
# dermabrasions = assay: Healing of superficial epidermal-dermal wounds (dermabrasions) in human skin containing TCDD; type: in vivo
# Excerpt: Thus, the time to complete healing is reduced from 9.3 to 5 days.
# CYPlAl [5] = assay: CYP1A1 activity test (P450-GLO assay) in NHK cells; type: cell-based, human; details: 10 nM, 24 h
# human skin [6] = assay: Messenger RNA expression (RT PCR, transcriptome) in human skin exposed to TCDD; type: in vivo
# Excerpt: This observation identifies a new target for medicaments aimed at modulating sebaceous function, a concept exemplified here by AhR activation.
# The expression of the messenger RNAs of vascular endothelial growth factors (VEGFs) and of their receptors is increased in skin exposed to TCDD.
# The expression of the messenger RNAs of the various estrogen receptors ESRR and ER, of the estrogen responsive finger protein (EFP) ligase and of the estrogen-producing aromatase enzyme is increased in skin exposed to TCDD.
# human skin [7] = assay: Estradiol (E2) concentration in human skin exposed to TCDD by ELISA; type: in vivo; details: human skin containing 1800 ppt of TCDD versus controls
# [8] = test system: staphylococcus sp, P. acnes; assay: Bacterial colonization of human skin exposed to TCDD (CFU per cm^2); type: in vivo
# [9] = human organism; cited from earlier work
# AhR [10] = molecular target: T1, AhR; assay: Test for potentiation by bacterial flora: AhR activation in HEP G2 cells with skin bacteria extracts and tryptophan; type: cell-based; design: endogenous in cells; host or cells: Hep G2 cells transduced with the reporter lentivector plox-XRE TATA-Luc
# Description: The activation value 25.00 on the Y-axis corresponds to ⅙ of the AhR stimulation by 10 nM TCDD in this same system (157.00).
# AhR [11] = molecular target: T1, AhR; assay: AhR activation test, luciferase reporter plox-XRE TATA-Luc in normal human keratinocytes; type: cell-based; design: endogenous in cells; host or cells: normal human keratinocytes (NHKs) transduced with the reporter lentivector plox-XRE TATA-Luc; details: NHK-plox-XRE TATA-Luc cells, 10 nM, 24 h
# Description: FIGS. 14, 15 and 16 show AhR activation in HEP G2 cells and normal human keratinocytes (NHKs) stably transfected with the lentivector plox-XRE TATA-Luc.
# as §1
# The tests are carried out using the luciferase reporter assay system kit from Promega. […] At D2, the cells are lysed in CLB buffer, and the lysate is clarified by centrifugation for 5 min at 10 000 g. The luciferase activity is measured in 20 microliters of lysate as recommended by the supplier, using the luminoskan luminometer (Thermo).
# Similar results are noted.
# seborrhea = assay: Sebumetric measurement of casual sebum levels on the face of hyperseborrheic men; type: in vivo, human; details: gel containing 1% tryptophan on the face of two hyperseborrheic men for 3 weeks
# Excerpt: The effect shown in FIG. 16, where it is seen that Propionibacterium acnes (PA) generates an AhR activation, which is highly accentuated by the addition of tryptophan, can be taken advantage of in the context of this invention. This is because PA is one of the key players in sebaceous gland diseases, and it is present in large amounts in facial skin. It could therefore contribute to producing therapeutic amounts of AhR ligands in the presence of tryptophan, or also other aromatic amino acids such as tyrosine and phenylalanine. In order to explore the relevance of this approach, the applicant carried out a test by applying a gel containing 1% tryptophan to the face of two hyperseborrheic men for 3 weeks, and observed a decrease in the seborrhea which could be evaluated at 40% of the starting value using sebumetric measurement of the casual sebum levels.
# chronic wounds = assay: Chronic human leg wounds with dermatoporosis treated with tryptophan gel; type: in vivo
# [12] = human skin containing 1800 ppt of TCDD versus controls
compound,measurement,setting,value
"CCOC(=O)c1cc2c(cn1)[nH]c1ccccc12 [B-CCE, Ethyl β-carboline-3-carboxylate]",induction of CYPlAl activity by ligands according to the invention,"CYPlAl [1]; FIG. 17, cell type not stated for the ligands",induction of this AhR-dependent biological activity
same,AhR percentage activation compared to 0.01 μM TCDD,AhR [2],greatest activities
"O=Cc1c2c(cc3c1=Nc1ccccc1-3)=Nc1ccccc1-2 [FICZ, 6-Formylindolo[3,2-b]carbazole]",decrease in the sebaceous glands,"sebaceous glands [3]; C57BL/6 mice ears, topical 100 mcg/ml, once a day for 45 d",~40%
same,effect on healing at the highest concentrations,human keratinocytes,"a decrease in the effect, or even an inhibition of healing"
same,stimulation of healing (migration index),human keratinocytes; μM concentrations,strong stimulation of healing
same,AhR percentage activation compared to 0.01 μM TCDD,AhR [2],greatest activities
"Clc1cc2c(cc1Cl)Oc1cc(Cl)c(Cl)cc1O2 [TCDD, 2,3,7,8-tetrachlorodibenzo-p-dioxin]",sebaceous glands observed in skin biopsies,sebaceous glands [4],no sebaceous gland could be observed
same,reduction in the number of sebaceous glands,"sebaceous glands [3]; C57BL/6 mice, topical 2 mcg/ml, 45 days",95%
same,time in which epidermal-dermal wounds are covered,"dermabrasions; human exposed to TCDD, average healing time ordinarily 10 days",3 days
same,time to complete healing of dermabrasions,"dermabrasions; human skin with 930 to 2900 ppt TCDD, controls 9.3 days",5 days
same,effect on healing at the highest concentrations,human keratinocytes,"a decrease in the effect, or even an inhibition of healing"
same,stimulation of healing (migration index),human keratinocytes; nM concentrations,strong stimulation of healing
same,induction of the CYPlAl activity,"CYPlAl [1]; Hep G2 cells, 10 nM, 24 h",250 fold
same,induction of the CYPlAl activity,CYPlAl [5],20 fold
same,"expression of messenger RNAs of estrogen receptors ESRR and ER, EFP ligase and aromatase",human skin [6]; [12],increased
same,expression of messenger RNAs of vascular endothelial growth factors (VEGFs) and their receptors,human skin [6]; [12],increased
same,hyaluronate in the dermis,human skin [6]; human skin exposed to TCDD,very substantial accumulation of hyaluronate in the dermis
same,messenger RNAs of sebaceous lipogenesis enzymes,"human skin [6]; human skin exposed to TCDD, whole transcriptome",considerable reduction
same,concentration of estradiol (E2) in skin,human skin [7],increase in the concentration of estradiol
same,P. acnes colonization of skin,[8]; human skin exposed to TCDD,same effect is observed
same,colonization of skin by staphylococcus sp (CFU per cm^2),"[8]; human with more than 900 ppt of TCDD in the skin, 4 samples 1 month apart",very greatly decreased
same,half-life in human tissues,[9],4-12 years
same,induction of the luciferase activity,"AhR [2]; Hep G2-plox-XRE TATA-Luc cells, 10 nM, 24 h",100 fold
same,AhR stimulation (activation value on the Y-axis),AhR [10]; 10 nM,157.00
same,induction of the luciferase activity,AhR [11],10 fold
"COc1ccccc1OCCNCC(O)COc1cccc2[nH]c3ccccc3c12 (stereo not shown) [carvedilol, Carvedilol]",induction of CYPlAl activity by ligands according to the invention,CYPlAl [1],induction of this AhR-dependent biological activity
"O=c1cc(O)cc(/C=C/c2ccc(O)c(O)c2)o1 [hispidin, Hispidin]",AhR percentage activation compared to 0.01 μM TCDD,AhR [2],greatest activities
"O=c1c2ccccc2nc2n1CCc1c-2[nH]c2ccccc12 [rutaecarpine, Rutaecarpine]",induction of CYPlAl activity by ligands according to the invention,CYPlAl [1],induction of this AhR-dependent biological activity
N[C@@H](Cc1c[nH]c2ccccc12)C(=O)O [tryptophan],"decrease in the seborrhea (casual sebum levels), of the starting value",seborrhea,40%
same,stimulation of healing (migration index),human keratinocytes; μM concentrations,strong stimulation of healing
same,dermatoporotic skin around the wound,chronic wounds,thickening of the dermatoporotic skin around the wound
same,healing of chronic wounds,chronic wounds; series of 10 cases of chronic wounds on legs,Contraction of chronic wounds and the development of epithelial healing
same,AhR percentage activation compared to 0.01 μM TCDD,AhR [2],greatest activities
same,AhR activation with bacterial extract on addition of tryptophan,AhR [10]; in particular with P. acnes extract,an increase in the activation is observed
